Reference: PubChem BioAssay (NCI)
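Grown in 96-well plates, cells were treated for 48 hours with each compound at five concentrations. Insufficient inhibition: endpoint recorded as highest concentration tested. GI50: concentration for 50% inhibition of growth. The concentration for full growth arrest is given as TGI.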

Columns and labels:
Assay in all cases: inhibition of tumour cell growth, NCI panel, 48 h
786-0 renal = test system: 786-0 renal
A498 renal = test system: A498 renal
A549 NSCLC = test system: A549 NSCLC
ACHN renal = test system: ACHN renal
BT-549 breast = test system: BT-549 breast
CAKI-1 renal = test system: CAKI-1 renal
CCRF-CEM leukemia = test system: CCRF-CEM leukemia
COLO 205 colon = test system: COLO 205 colon
DU-145 prostate = test system: DU-145 prostate
EKVX NSCLC = test system: EKVX NSCLC
HCC-2998 colon = test system: HCC-2998 colon
HCT-116 colon = test system: HCT-116 colon
HCT-15 colon = test system: HCT-15 colon
HL-60(TB) leukemia = test system: HL-60(TB) leukemia
HOP-62 NSCLC = test system: HOP-62 NSCLC
HOP-92 NSCLC = test system: HOP-92 NSCLC
HS 578T breast = test system: HS 578T breast
HT29 colon = test system: HT29 colon
IGROV1 ovarian = test system: IGROV1 ovarian
K-562 leukemia = test system: K-562 leukemia
KM12 colon = test system: KM12 colon
LOX IMVI melanoma = test system: LOX IMVI melanoma
M14 melanoma = test system: M14 melanoma
MALME-3M melanoma = test system: MALME-3M melanoma
MCF7 breast = test system: MCF7 breast
MDA-MB-231 breast = test system: MDA-MB-231 breast
MDA-MB-435 = test system: MDA-MB-435
MDA-N = test system: MDA-N
MOLT-4 leukemia = test system: MOLT-4 leukemia
NCI-H226 lung = test system: NCI-H226 lung
NCI-H23 lung = test system: NCI-H23 lung
NCI-H460 lung = test system: NCI-H460 lung
NCI/ADR-RES ovarian = test system: NCI/ADR-RES ovarian
OVCAR-3 ovarian = test system: OVCAR-3 ovarian
OVCAR-4 ovarian = test system: OVCAR-4 ovarian
OVCAR-5 ovarian = test system: OVCAR-5 ovarian
OVCAR-8 ovarian = test system: OVCAR-8 ovarian
PC-3 prostate = test system: PC-3 prostate
RPMI-8226 leukemia = test system: RPMI-8226 leukemia
RXF 393 renal = test system: RXF 393 renal
SF-268 CNS = test system: SF-268 CNS
SF-295 CNS = test system: SF-295 CNS
SF-539 CNS = test system: SF-539 CNS
SK-MEL-2 melanoma = test system: SK-MEL-2 melanoma
SK-MEL-28 melanoma = test system: SK-MEL-28 melanoma
SK-MEL-5 melanoma = test system: SK-MEL-5 melanoma
SK-OV-3 ovarian = test system: SK-OV-3 ovarian
SN12C renal = test system: SN12C renal
SNB-19 CNS = test system: SNB-19 CNS
SNB-75 CNS = test system: SNB-75 CNS
SW-620 colon = test system: SW-620 colon
T-47D breast = test system: T-47D breast
TK-10 renal = test system: TK-10 renal
U251 CNS = test system: U251 CNS
UACC-257 melanoma = test system: UACC-257 melanoma
UACC-62 melanoma = test system: UACC-62 melanoma
UO-31 renal = test system: UO-31 renal
NCI-H522 lung = test system: NCI-H522 lung

CCCCCCSC[C@H](OC(C)=O)[C@@H](OC(C)=O)[C@@H](OC(C)=O)[C@@H](COC(C)=O)OC(C)=O
TGI (786-0 renal): > 100 µM
TGI (A498 renal): > 100 µM
TGI (A549 NSCLC): > 100 µM
TGI (ACHN renal): > 100 µM
TGI (BT-549 breast): > 100 µM
TGI (CAKI-1 renal): > 100 µM
TGI (CCRF-CEM leukemia): > 100 µM
TGI (COLO 205 colon): > 100 µM
TGI (DU-145 prostate): > 100 µM
TGI (EKVX NSCLC): > 100 µM
TGI (HCC-2998 colon): > 100 µM
TGI (HCT-116 colon): > 100 µM
TGI (HCT-15 colon): > 100 µM
TGI (HL-60(TB) leukemia): > 100 µM
TGI (HOP-62 NSCLC): > 100 µM
TGI (HOP-92 NSCLC): > 100 µM
TGI (HS 578T breast): > 100 µM
TGI (HT29 colon): > 100 µM
TGI (IGROV1 ovarian): > 100 µM
TGI (K-562 leukemia): > 100 µM
TGI (KM12 colon): > 100 µM
TGI (LOX IMVI melanoma): > 100 µM
TGI (M14 melanoma): > 100 µM
TGI (MALME-3M melanoma): > 100 µM
TGI (MCF7 breast): > 100 µM
TGI (MDA-MB-231 breast): > 100 µM
TGI (MDA-MB-435): > 100 µM
TGI (MDA-N): > 100 µM
TGI (MOLT-4 leukemia): 90.5 µM
TGI (NCI-H226 lung): > 100 µM
TGI (NCI-H23 lung): > 100 µM
TGI (NCI-H460 lung): > 100 µM
TGI (NCI/ADR-RES ovarian): > 100 µM
TGI (OVCAR-3 ovarian): > 100 µM
TGI (OVCAR-4 ovarian): > 100 µM
TGI (OVCAR-5 ovarian): > 100 µM
TGI (OVCAR-8 ovarian): > 100 µM
TGI (PC-3 prostate): 99.6 µM
TGI (RPMI-8226 leukemia): 50.1 µM
TGI (RXF 393 renal): > 100 µM
TGI (SF-268 CNS): > 100 µM
TGI (SF-295 CNS): > 100 µM
TGI (SF-539 CNS): > 100 µM
TGI (SK-MEL-2 melanoma): > 100 µM
TGI (SK-MEL-28 melanoma): > 100 µM
TGI (SK-MEL-5 melanoma): 62.1 µM
TGI (SK-OV-3 ovarian): > 100 µM
TGI (SN12C renal): > 100 µM
TGI (SNB-19 CNS): > 100 µM
TGI (SNB-75 CNS): > 100 µM
TGI (SW-620 colon): > 100 µM
TGI (T-47D breast): > 100 µM
TGI (TK-10 renal): > 100 µM
TGI (U251 CNS): > 100 µM
TGI (UACC-257 melanoma): > 100 µM
TGI (UACC-62 melanoma): > 100 µM
TGI (UO-31 renal): > 100 µM

CC=C(CBr)CCC(Br)C(C)(C)Cl (mixture of isomers)
TGI (786-0 renal): > 10 µM
TGI (A498 renal): > 10 µM
TGI (A549 NSCLC): > 10 µM
TGI (ACHN renal): > 10 µM
TGI (BT-549 breast): > 10 µM
TGI (CAKI-1 renal): > 10 µM
TGI (CCRF-CEM leukemia): > 10 µM
TGI (COLO 205 colon): > 10 µM
TGI (DU-145 prostate): > 10 µM
TGI (EKVX NSCLC): > 10 µM
TGI (HCC-2998 colon): > 10 µM
TGI (HCT-116 colon): > 10 µM
TGI (HCT-15 colon): > 10 µM
TGI (HOP-62 NSCLC): > 10 µM
TGI (HOP-92 NSCLC): > 10 µM
TGI (HS 578T breast): > 10 µM
TGI (HT29 colon): > 10 µM
TGI (IGROV1 ovarian): > 10 µM
TGI (K-562 leukemia): > 10 µM
TGI (KM12 colon): > 10 µM
TGI (M14 melanoma): > 10 µM
TGI (MALME-3M melanoma): > 10 µM
TGI (MCF7 breast): > 10 µM
TGI (MDA-MB-231 breast): > 10 µM
TGI (MDA-MB-435): > 10 µM
TGI (MDA-N): > 10 µM
TGI (MOLT-4 leukemia): > 10 µM
TGI (NCI-H226 lung): > 10 µM
TGI (NCI-H23 lung): > 10 µM
TGI (NCI-H460 lung): > 10 µM
TGI (NCI-H522 lung): > 10 µM
TGI (NCI/ADR-RES ovarian): > 10 µM
TGI (OVCAR-3 ovarian): > 10 µM
TGI (OVCAR-4 ovarian): > 10 µM
TGI (OVCAR-5 ovarian): > 10 µM
TGI (OVCAR-8 ovarian): > 10 µM
TGI (PC-3 prostate): > 10 µM
TGI (RPMI-8226 leukemia): > 10 µM
TGI (RXF 393 renal): > 10 µM
TGI (SF-268 CNS): > 10 µM
TGI (SF-295 CNS): > 10 µM
TGI (SF-539 CNS): > 10 µM
TGI (SK-MEL-2 melanoma): > 10 µM
TGI (SK-MEL-28 melanoma): > 10 µM
TGI (SK-MEL-5 melanoma): > 10 µM
TGI (SK-OV-3 ovarian): > 10 µM
TGI (SN12C renal): > 10 µM
TGI (SNB-19 CNS): > 10 µM
TGI (SNB-75 CNS): > 10 µM
TGI (SW-620 colon): > 10 µM
TGI (T-47D breast): > 10 µM
TGI (TK-10 renal): > 10 µM
TGI (U251 CNS): > 10 µM
TGI (UACC-257 melanoma): > 10 µM
TGI (UO-31 renal): > 10 µM

COc1ccc(-c2cc(=O)c3cc(C)cnc3[nH]2)cc1
GI50 (786-0 renal): 5.1 µM
TGI (786-0 renal): > 100 µM
TGI (A498 renal): 62.6 µM
TGI (A549 NSCLC): > 100 µM
TGI (ACHN renal): > 100 µM
TGI (BT-549 breast): 15 µM
TGI (CAKI-1 renal): > 100 µM
TGI (COLO 205 colon): 23 µM
TGI (DU-145 prostate): > 100 µM
TGI (EKVX NSCLC): > 100 µM
TGI (HCC-2998 colon): 85 µM
GI50 (HCT-116 colon): 4.15 µM
TGI (HCT-116 colon): > 100 µM
TGI (HCT-15 colon): 19.8 µM
GI50 (HL-60(TB) leukemia): 2.27 µM
TGI (HL-60(TB) leukemia): 5.64 µM
TGI (HOP-62 NSCLC): > 100 µM
TGI (HOP-92 NSCLC): > 100 µM
TGI (HS 578T breast): > 100 µM
TGI (HT29 colon): 5.9 µM
TGI (IGROV1 ovarian): > 100 µM
TGI (K-562 leukemia): 8.29 µM
TGI (KM12 colon): > 100 µM
TGI (LOX IMVI melanoma): > 100 µM
TGI (M14 melanoma): 45.1 µM
TGI (MALME-3M melanoma): > 100 µM
TGI (MCF7 breast): > 100 µM
TGI (MDA-MB-231 breast): > 100 µM
TGI (MDA-MB-435): 5.53 µM
GI50 (MDA-N): 1.69 µM
TGI (MDA-N): 4.98 µM
TGI (MOLT-4 leukemia): 40.9 µM
TGI (NCI-H226 lung): 51.7 µM
TGI (NCI-H23 lung): > 100 µM
GI50 (NCI-H460 lung): 4.08 µM
TGI (NCI-H460 lung): 36.5 µM
TGI (NCI-H522 lung): 30.7 µM
TGI (NCI/ADR-RES ovarian): 23.5 µM
TGI (OVCAR-4 ovarian): > 100 µM
TGI (OVCAR-5 ovarian): > 100 µM
TGI (OVCAR-8 ovarian): > 100 µM
GI50 (PC-3 prostate): 5.32 µM
TGI (PC-3 prostate): > 100 µM
TGI (RPMI-8226 leukemia): 45 µM
TGI (RXF 393 renal): > 100 µM
TGI (SF-268 CNS): > 100 µM
GI50 (SF-295 CNS): 5.29 µM
TGI (SF-295 CNS): > 100 µM
TGI (SF-539 CNS): > 100 µM
TGI (SK-MEL-2 melanoma): > 100 µM
TGI (SK-MEL-28 melanoma): > 100 µM
GI50 (SK-MEL-5 melanoma): 3.73 µM
TGI (SK-MEL-5 melanoma): > 100 µM
TGI (SK-OV-3 ovarian): > 100 µM
TGI (SN12C renal): > 100 µM
TGI (SNB-19 CNS): > 100 µM
TGI (SW-620 colon): > 100 µM
TGI (T-47D breast): > 100 µM
TGI (TK-10 renal): > 100 µM
GI50 (U251 CNS): 4.2 µM
TGI (U251 CNS): > 100 µM
TGI (UACC-257 melanoma): > 100 µM
TGI (UACC-62 melanoma): > 100 µM
TGI (UO-31 renal): > 100 µM
